# Reference: patent US20260263403A1, “COMPOSITIONS AND METHODS FOR TREATING TRAUMATIC BRAIN INJURY” (THE CHILDREN'S HOSPITAL OF PHILADELPHIA, priority 2023, published 2026)
# Tests used:
# [1] = system: acetate levels in the brain; settings: dietary supplement, within one hour of administration; cited from earlier work
# [2] = solubility/precipitation of BCAA drink during study preparation; assay type: physicochemical; settings: 60 g/day dose divided twice daily, initial study preparation
# Source text: The three BCAAs, valine, isoleucine, and leucine, were combined together in a 1:1:1 ratio for the four treatment doses. […] Given the unknown optimal dose of BCAA supplementation for concussion, doses of 15 g, 30 g, 45 g, and 60 g divided twice daily were chosen as initial treatment doses.
Compound,increase of acetate levels in the brain [1],precipitation at the highest dose [2]
"CC(=O)OCC(COC(C)=O)OC(C)=O [GTA, glyceryl triacetate]",over 15 fold,
CC(C)C[C@H](N)C(=O)O [leucine],,precipitating at a lower concentration than expected
